The source of these data is patent publication US11655244B2, “Carbazole compounds and methods of use thereof” (GSNO Therapeutics, Inc, priority 2017, dated 2023).

Assay [1] concerns the target T1, GSNOR enzyme (Homo sapiens, UniProt P11766). Briefly: GSNOR inhibition assay (rate of NADH consumption, 340 nm absorbance). Format: biochemical. How it is done: The following compounds were also prepared based on the methods described herein, using the appropriate starting materials. Table 2a and Table 2b also provides the % GSNOR inhibition at 20 μM of compounds described herein. […] The buffer was 100 mM phosphate buffer (pH 7.4.) The rate of NADH consumption for each well was determined by ultraviolet spectroscopy. Plates were read on a Molecular Devices Spectra Max UV/Visible Spectrophotometer/plate reader and the change in 340 nm absorbance at 25° C. was recorded for each well at 10 sec intervals over the duration of the recording period (2˜5 minutes). The rate was measured from the linear portion of the curve. Final test compound concentration was 20 μM. The mean % inhibition from 3 test compound wells and 5 control wells was measured as the percentage of the mean no compound+enzyme−the mean no enzyme, no compound control.

In assay [2] the target is T1, GSNOR enzyme. The description is as above. The conditions noted are these: Table 2b; read-out: IC50 Micromolar. Format: biochemical.
Another assay deals with IL-6. In words: LPS/cytokine assay (mouse inflammation assay), IL-6. Format: in vivo, CD-1 male mice. The protocol: Table 2b also includes additional biological data of compounds described herein. The LPS/cytokine Assay was carried out in CD-1 male mice. The assay measured the level of various cytokines, including IL-6, IL-17, and IL-23, after induction by bacterial liposaccharide (LPS). Compounds were dosed by IP or IV routes of administration at varying times before and after LPS and the cytokine concentrations were measured at varying times, typically 6 hrs, after LPS by standard methods using ELISA kits.
BIOLOGICAL TESTING: Compounds 10 and 17 from Table 1 were tested in a mouse inflammation assay. Briefly, CD-1 mice were dosed with compound, 12 hrs before injecting mice I.P. with the potent cytokine inducer, bacterial lipopolysaccharide (LPS). The mice were euthanized 6 hrs after the LPS was injected and their serum prepared by standard methods. The concentration of IL-6 in the serum of each experimental animal was measured using an IL-6 ELISA kit from Enzo. The compounds tested were active.
This LPS/cytokine assay was carried out in healthy mice and measured the level of cytokine IL-6, IL-17, and 23 induction by LPS. Compounds are dosed (either orally (“p.o.”) or intravenously (“i.v.”) at varying times before and after LPS, and the cytokines are measured at varying times after LPS. The effect of the tested compounds (Table 5) on IL-6 release is shown in FIG. 7. The effect of the tested compounds (Table 6) on IL-17 an IL-23 release is shown in FIG. 11 and FIG. 12, respectively.

Like-named read-outs stand apart in the source and are kept apart here.

T1 sequence (P11766 whole entry): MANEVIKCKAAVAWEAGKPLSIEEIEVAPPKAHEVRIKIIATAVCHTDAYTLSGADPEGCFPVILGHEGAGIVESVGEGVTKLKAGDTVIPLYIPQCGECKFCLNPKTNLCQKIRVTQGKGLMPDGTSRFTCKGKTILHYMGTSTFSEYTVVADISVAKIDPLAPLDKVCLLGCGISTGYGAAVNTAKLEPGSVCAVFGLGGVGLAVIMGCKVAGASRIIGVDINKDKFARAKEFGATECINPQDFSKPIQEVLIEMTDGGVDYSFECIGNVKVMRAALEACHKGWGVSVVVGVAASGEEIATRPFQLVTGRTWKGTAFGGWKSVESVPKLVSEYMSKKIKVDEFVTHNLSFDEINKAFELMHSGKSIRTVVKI

One may read the IC50 as the midpoint of a concentration-inhibition curve. Regarding `NC(=O)CCn1c2ccc(-n3ccnc3)cc2c2ccc(CCC(=O)O)cc21` [Compound 17, 3-(imidazol-1(H)-yl)-7-(2-carboxylethyl)-9(H)-(2-aminocarbonylethyl) carbazole], the inhibition at 20 µM at GSNOR enzyme [1] (Table 2a, test compound 20 μM, pH 7.4, 25° C., read-out: % Inhibit. at 20 μM) came out at 92.8%; at GSNOR enzyme [1] (Table 2b, test compound 20 uM, read-out: % GSNOR Inhibition at 20 uM), 92.8%. In addition, the IC50 on GSNOR enzyme [2] lay within 1000 to 5000 nM. For the same compound, in the assay with IL-6 (CD-1 male mice, IP or IV, cytokine typically 6 hrs after LPS), the “LPS/IL6 Lowest tested active” value is on record as 0.03 mg/kg. The “IL-6 in serum after LPS (mouse inflammation assay)” value in the assay with IL-6 (dosed 12 hrs before LPS I.P., serum 6 hrs after LPS) is “active”.
